In patent publication US20070032477A1, “Pteridine derivatives useful for making pharmaceutical compositions” (priority 2003, published 2007):

Experiments:
[1] = tested on: TNF-α induced shock in C57BL/6 male mice; experiment: Protection against a lethal dose of TNF-α; type: in vivo
Experimental: A model of TNF-α induced shock in C57BL/6 male mice was performed as follows. Five animals from the control group received an intravenous administration of a lethal dose of TNF-α (10 μg) in the tail. Ten animals from the test group received three intraperitoneous injections of the pteridine derivative of example 17 (20 mg/kg/day) respectively 48 hours, 24 hours and immediately before an intravenous injection of TNF-α (10 μg).
Furthermore, all five mice from the control group died within 40 hours, the survival rate (80%) of mice that received the pteridine derivative of example 17 in addition to the TNF-α dose (10 μg) was quite substantial.

[2] = tested on: TNBS-induced colitis in C57 BL/6 mice; experiment: Trinitrobenzenesulfonate-induced colitis test in mice (Example 209); type: in vivo
Experimental: C57 BL/6 mice (4-5 weeks) were obtained from M&B (Denmark), bred under standard pathogen-free conditions and maintained in the certified animal facility of the University Hospital Gasthuisberg, Catholic University of Leuven (Belgium). Experiments were approved by the local Ethical Committee of Animal Experimentation. Mice were sensitized twice 10 days and 5 days before rectal challenge. For sensitization, a 2×2 cm field of the abdominal skin was shaved, and 100 μl of 5 mg trinitrobenzenesulfonate (hereinafter referred as TNBS) in 50% ethanol solution was applied. On the day of challenge, mice were first lightly anesthetized with metofane. Subsequently TNBS (1 mg in 50% ethanol) was administered per rectum via a round-tip needle equipped with a 1-ml syringe. The tip of the needle was inserted so that the tip was about 3.5 to 4 cm proximal to the anal verge and TNBS was injected with a total volume of 100 μl. To ensure distribution of TNBS within the entire colon and cecum, mice were held in a vertical position for 1 minute after the injection.
The compound of example 176 (2-amino-6-(3,4-dimethoxyphenyl)-4-[N-(4-methyl-phenyl)-piperazin-1-yl]pteridine) was given to the mice by daily gavage at the dose of 20 mg/kg (400 μg in 100 μl H2O). Control mice were treated with 100 μl H2O only. Body weights of all animals were recorded daily in order to follow the development of inflammatory colitis over a period of 10 days.
Both macroscopic and microscopic histology evaluations were performed as follows. Mice were sacrificed at day 2 by cervical […], the colon was excised and was immediately examined visually, and damage was scored on a 0-12 scale. Colon sections were then fixed in 6% formalin and embedded in paraffin, cut into sections, and then stained with hematoxylin and eosin. Stained sections were examined for evidence of colitis using as criteria the presence of cell infiltration, elongation and/or distortion of crypts, crypt abscesses, reduction in goblet cell number, frank ulceration, and oedema formation.
MPO activity was measured as follows. Two days after intracolonic injection of TNBS, 50 mg colon was removed, homogenised and sonicated on ice. Samples were frozen in liquid nitrogen and subsequently thawed in a water bath at 37° C., each step lasted 3 minutes and the procedure was repeated for two cycles. After centrifugation, an aliquot of the supernatant was then allowed to react with a solution of tetra-methyl-benzidine (1.6 mM) and 0.1 mM H2O2. The rate of change in absorbance was measured spectrophotometrically at 460 nm. MPO activity was defined as the quantity of enzyme degrading 1 μmole of peroxide/minute at 37° C. and was expressed in units per gram weight of wet tissue. Sample enzyme activity was measured from a standard curve of known MPO unit activity (assay sensitivity 5×10^−7 units per well).
Quantitative Reverse Transcriptase (RT)-PCR for cytokine mRNA was performed as follows: part of the colon tissues, removed on day 2 after TNBS application, was immediately frozen in liquid nitrogen after dissection and stored at −70° C. until extraction of total RNA using a method well known in the art. A constant amount of 1 μg of total RNA was used for oligo-(dT)-primed cDNA synthesis (Ready-to-go-kit, commercially available from Pharmacia, Sweden). After 90 minutes at 37° C., the reverse transcriptase was inactivated by incubating the cDNA samples for 5 minutes at 95° C. The amount of cDNA was quantified by real-time RT-PCR using specific primers for β-actin and TNF, with the ABI Prism 7700 Sequence Detectin System (SDS) commercially available from Applied Biosystems (California). PCR was performed in a total volume of 25 μl, containing 5 μl cDNA and 20 μl mix with the TaqMan® Universal PCR Master Mix (2×) (Applied Biosystems) combined with 300 nM of the primer and 100 nM of the probe. […]

[3] = Plasma levels after oral administration in healthy mice; type: in vivo, C57BL/6 mice
Experimental: Each group of 6 mice received the indicated dose at time point 0 and were bled at 1, 3 and 5 hours after compound administration. Quantification was performed using a calibration curve of known compound concentrations spiked in control serum.
The plasma levels of the tested compound (example 176) was evaluated in C57BL/6 mice 8-10 weeks old Harlan, weighing 18.6-22.0 g after oral administration of 20, 10, 5 and 1 mg/kg, respectively (n=6 per dose). The tested compound (example 176) was dissolved in water to the appropriate concentration in order to deliver a constant gavage volume of 10 μl/g of body weight. Blood was collected by eye bleeding with heparinized capillaries at 1, 3, and 5 hours after dosing from each animal. The plasma fraction was immediately separated by centrifugation for 2 minutes at 12,000 g and stored at −80° C. until analysis. Each plasma sample was spiked with internal standard followed by the addition of 4 volumes of methanol. The samples were kept for 30 minutes on ice prior to centrifugation (10 minutes at 12,000 g) in order to remove precipitated proteins. The supernatant was analyzed for the presence of the tested compound (example 176), using LC/MS/MS. As standard for the bio-analysis, the tested compound (example 176) was diluted stepwise; each dilution was added to control plasma; additionally spiked with internal standard, giving rise to standard curves from 200 to 40,000 nM.

[4] = daily gavage 20 mg/kg, versus control mice

circulating concentration (peak serum level) ([3]; 20 mg/kg oral, one hour after administration)	peak serum levels with increasing doses ([3]; oral 1, 5, 10, 20 mg/kg, one hour after administration)	SMILES	survival rate ([1]; TNF-α 10 μg i.v., 20 mg/kg/day i.p. three injections, within 40 hours) [%]	body temperature ([1]; followed for 40 hours, 20 mg/kg/day i.p. 48 h, 24 h and immediately before TNF-α 10 μg i.v.)	recovery of original body weight earlier than control mice ([2]; daily gavage 20 mg/kg)	microscopic score ([2]; daily gavage 20 mg/kg, day 2)	average macroscopic score ([2]; daily gavage 20 mg/kg, day 2, 0-12 scale)	tissue MPO activity in colon ([2]; daily gavage 20 mg/kg, two days after TNBS) [U/g]	decrease of tissue MPO activity [2, 4] [fold]	reduction in average macroscopic score [2, 4] [%]	mRNA for other cytokines (IFN-γ and IL-18) in colon ([2]; day 2, compared to control mice)	cytokine mRNA level for TNF in colon ([2]; day 2, ratio to β-actin multiplied by 10^6)	Anti-TNBS antibody (IgG1 and IgG2a) levels ([2]; serum day 10, compared to control mice)	serum level 5 hours after administration compared with TNF-alpha assay IC50 ([3]; 20 mg/kg oral)	serum levels after 5 hours compared with TNF assay IC50 ([3]; all lower doses (10, 5 and 1 mg/kg oral))
		COc1ccc(-c2cnc3nc(N)nc(N4CCN(C(=O)COc5ccccc5)CC4)c3n2)cc1OC [Example 17, 2-amino-4-[(N-phenoxyacetyl)-piperazin-1-yl]-6-(3,4-dimethoxy-phenyl)pteridine]	80	body temperature of control mice dropped significantly when compared to mice receiving the test compound											
approximately 1 μM	dose-dependent increase	COc1ccc(-c2cnc3nc(N)nc(N4CCN(c5ccc(C)cc5)CC4)c3n2)cc1OC [Example 176, 2-amino-6-(3,4-dimethoxyphenyl)-4-((4-methylphenyl)-piperazin-1-yl)pteridine]			at least 4 days	5.7±0.6	6.2±0.4	6.7±1.4	2	30	no difference	18.1±8.5	similar	still above the IC50 value of the TNF-alpha assay	lower than the IC50 value in the TNF assay
